Values of other authors in US20230037660A1, “METHODS OF TREATING VASCULAR LESIONS AND MALFORMATIONS” (priority 2019, published 2023).

System: diseased tissue / blood vessels
Settings: ICG alone, not conjugated

CC1(C)C(/C=C/C=C/C=C/C=C2\N(CCCCS(=O)(=O)O)c3ccc4ccccc4c3C2(C)C)=[N+](CCCCS(=O)(=O)[O-])c2ccc3ccccc3c21 [ICG, indocyanine green]
Fluorescence behaviour of the dye alone after injection: transiently lights up blood vessels immediately after injection
